Marks after values point to notes of the source that are not given here.
Test system: subjects with T2DM and renal impairment
Experiment: Phase 2a: continuous glucose monitoring (CGM)
Type: in vivo, human
Conditions: for Percentage of Time CGM Glucose Within Target Range (70-180 mg/dL), Mean / Percentage of Time CGM Glucose Within Target Range (70-180 mg/dL), Median / Time in target range, Change from Baseline (Days −8 to −2), Mean / Time in target range, Change from Baseline (Days −8 to −2), Median / Time in target range, Difference in LS Mean Change (vs Placebo): 300 μg Dose (Days 26 to 32); for Percentage of Time CGM Glucose Within Target Range (70-180 mg/dL), Mean / Percentage of Time CGM Glucose Within Target Range (70-180 mg/dL), Median / Time in target range, Change from Baseline (Days −8 to −2), Mean / Time in target range, Change from Baseline (Days −8 to −2), Median / Time in target range, Difference in LS Mean Change (vs Placebo) / Percentage of time spent in CGM glucose range 70-180 mg/dL during treatment / Percentage of time spent in CGM glucose range >180 mg/dL during treatment: ITT; for Percentage of time spent in CGM glucose range 70-180 mg/dL during treatment / Percentage of time spent in CGM glucose range >180 mg/dL during treatment: entire dosing period
Protocol: Cotadutide was titrated from 50 μg up to 300 μg and administered once daily by subcutaneous (SC) injection over 32 days.
Cotadutide was administered at 50 μg once daily for 4 days, followed by 100 μg daily for 7 days, 200 μg daily for 7 days, and 300 μg daily for 14 days (n=20). Placebo was administered one daily for 32 days (n=20). Cotadutide and placebo were administered in the morning. Dosing commenced following predose baseline vital signs, blood tests (including HbA1c), an electrocardiogram (ECG), body weight measurement, and bioimpedance spectroscopy (BIS). Subjects then returned for daily dosing or remained overnight locally until Day 5, and thereafter, had visits at weekly intervals until a maintenance dose of 300 μg was established. Thus, Cotadutide or placebo was administered at the study site by study personal for the first four doses and on site on Days 5, 12, 19, and 32. At all other times, subjects preformed dosing at home.
A Freestyle Libre® Pro CGM device was used to measure interstitial glucose levels. […] Data generated by CGM was used at visits to adjust insulin doses and other treatments.
The CGM sensor, which is a small plastic circular device of 35 mm diameter and 5 mm depth, was applied to the back of the upper arm. Subjects wore the CGM sensor continuously up until the time of a sensor change, which was to occur within 14 days, and they were advised that they could bathe and shower, and swim in up to 3 m depth for up to 30 minutes while wearing the CGM sensor. When the CGM sensor was removed, a new CGM sensor could be reapplied, ideally close to the original site, but with the subject's site preference taken into account. CGM sensors were single-use only.
If a subject was unable to tolerate wearing the CGM sensor for the entire duration of the study, the sensor was removed; but the subject was to remain in the study with or without continued CGM and could instead be instructed to monitor capillary plasma glucose measurements four times per day (before meals and before bedtime) and record these levels in the diary provided.
Subjects underwent continuous glucose monitoring (CGM) starting from Day −14 to Day 40 (±5 days), with sensor changes within 14-day intervals. CGM readings were used to analyze change in average CGM glucose and glucose AUC7 d, coefficient of variation as a marker of glycemic variability, and time spent in target glucose range and hypoglycemia, to enable comparison across different dose levels.

SMILES: CCCCCCCCCCCCCCCC(=O)N[C@@H](CCC(=O)NCCCC[C@H](NC(=O)[C@H](CC(=O)O)NC(=O)[C@H](CO)NC(=O)[C@@H](NC(=O)[C@H](Cc1ccccc1)NC(=O)[C@@H](NC(=O)CNC(=O)[C@H](CCC(N)=O)NC(=O)[C@H](CO)NC(=O)[C@@H](N)Cc1c[nH]cn1)[C@@H](C)O)[C@@H](C)O)C(=O)N[C@@H](CO)C(=O)N[C@@H](CCC(=O)O)C(=O)N[C@@H](Cc1ccc(O)cc1)C(=O)N[C@@H](CC(C)C)C(=O)N[C@@H](CC(=O)O)C(=O)N[C@@H](CO)C(=O)N[C@@H](CCC(=O)O)C(=O)N[C@@H](CCCNC(=N)N)C(=O)N[C@@H](C)C(=O)N[C@@H](CCCNC(=N)N)C(=O)N[C@@H](CC(=O)O)C(=O)N[C@@H](Cc1ccccc1)C(=O)N[C@H](C(=O)N[C@@H](C)C(=O)N[C@@H](Cc1c[nH]c2ccccc12)C(=O)N[C@@H](CC(C)C)C(=O)N[C@@H](CCC(=O)O)C(=O)N[C@@H](C)C(=O)NCC(=O)NCC(=O)O)C(C)C)C(=O)O [Cotadutide]
- Percentage of Time CGM Glucose Within Target Range (70-180 mg/dL), Mean (Insulin Dose < 20 U/day): 89.31%
- Percentage of Time CGM Glucose Within Target Range (70-180 mg/dL), Median (Insulin Dose < 20 U/day): 95.35%
- Time in target range, Change from Baseline (Days −8 to −2), Mean (Insulin Dose < 20 U/day): 25.61%
- Time in target range, Change from Baseline (Days −8 to −2), Median (Insulin Dose < 20 U/day): 23.18%
- Time in target range, Difference in LS Mean Change (vs Placebo) (Insulin Dose < 20 U/day): 56.7%
- Time in target range, Difference in LS Mean Change (vs Placebo) (Insulin Dose < 20 U/day, listed as MEDI0382): 56.73%
- Percentage of Time CGM Glucose Within Target Range (70-180 mg/dL), Mean (Insulin Dose ≥ 20 U/day): 71.69%
- Percentage of Time CGM Glucose Within Target Range (70-180 mg/dL), Median (Insulin Dose ≥ 20 U/day): 83.04%
- Time in target range, Change from Baseline (Days −8 to −2), Mean (Insulin Dose ≥ 20 U/day): 8.44%
- Time in target range, Change from Baseline (Days −8 to −2), Median (Insulin Dose ≥ 20 U/day): 13.31%
- Time in target range, Difference in LS Mean Change (vs Placebo) (Insulin Dose ≥ 20 U/day): 19.6%
- Time in target range, Difference in LS Mean Change (vs Placebo) (Insulin Dose ≥ 20 U/day, listed as MEDI0382): 19.59%
- Percentage of Time CGM Glucose Within Target Range (70-180 mg/dL), Mean (Total): 78.18%
- Percentage of Time CGM Glucose Within Target Range (70-180 mg/dL), Median (Total): 83.51%
- Time in target range, Change from Baseline (Days −8 to −2), Mean (Total): 14.50%
- Time in target range, Change from Baseline (Days −8 to −2), Median (Total): 18.31%
- Time in target range, Difference in LS Mean Change (vs Placebo) (Total): 36.02%
- Time in target range, difference in LS mean change as compared to placebo (300 μg [Days 19 to 25], all subjects): 35.23%
- mean CGM glucose value (at the 50 μg dose): 133.7 mg/dL
- mean CGM glucose value (at the 100 μg dose): 127.6 mg/dL
- mean CGM glucose value (at the 200 μg dose): 131.7 mg/dL
- mean CGM glucose value (at the 300 μg dose (Days 26 to 32)): 125.4 mg/dL
- Total glucose over each dosing period (AUC7 d) from baseline (Days −8 to −2) as compared to placebo (based on LS mean change): significantly decreased
- LS mean change in coefficient of variation of glucose vs placebo (baseline to the end of each 7-day dosing period): no statistically significant difference
- Percentage of time spent in CGM glucose range 70-180 mg/dL during treatment (Insulin Dose < 20 U/day): 89.85* %
- Percentage of time spent in CGM glucose range >180 mg/dL during treatment (Insulin Dose < 20 U/day): 3.31%
- Percentage of time spent in CGM glucose range 70-180 mg/dL during treatment (Insulin Dose ≥ 20 U/day): 73.09* %
- Percentage of time spent in CGM glucose range >180 mg/dL during treatment (Insulin Dose ≥ 20 U/day): 14.09* %
- Percentage of time spent in CGM glucose range 70-180 mg/dL during treatment (Total): 78.67%
- Percentage of time spent in CGM glucose range >180 mg/dL during treatment (Total): 10.50%
- Percentage of time spent in CGM glucose range 70-180 mg/dL during treatment (Total, listed as MEDI0382): 78.67* %
- Percentage of time spent in CGM glucose range >180 mg/dL during treatment (Total, listed as MEDI0382): 10.50* %
- percentage of time spent below 54 mg/dL vs Placebo (in vivo): statistically significant greater percentage of time
- percentage of time spent below 54 mg/dL vs placebo (in vivo): no clinically significant difference vs placebo
- time spent in hypoglycemia (<70 mg/dL) vs placebo, 7-day periods (in vivo): no statistically significant differences
- Average glucose levels from baseline to the end of each 7-day dosing period compared to placebo (p ≤0.003, based on LS mean change): significant reductions

— patent US20210213104A1, “GLUCAGON AND GLP-1 CO-AGONISTS FOR THE TREATMENT OF CHRONIC KIDNEY DISEASE AND DIABETIC KIDNEY DISEASE IN TYPE 2 DIABETES” (MEDIMMUNE LIMITED, priority 2020, published 2021)
